In patent publication US20130303507A1 (Novartis AG, priority 2011, published 2013):
pIC50: −log10 of the molar value. Where “and” joins values, the source holds several entries; their conditions need not be identical. Equal values may be shown once.

What was measured:
[1] = biological target: T1, Cdk9/cyclinT1 (Homo sapiens, UniProt P50750); assay: Cdk9/cyclinT1 Alpha Screen protocol; assay type: biochemical; set-up: Full length wild type Cdk9/cyclin T1 is purchased from Invitrogen; purchased Invitrogen PV4131; details: individual determinations, read-out: CDK9_cyclinT1_AS2_IC50
T1 sequence (P50750 whole entry): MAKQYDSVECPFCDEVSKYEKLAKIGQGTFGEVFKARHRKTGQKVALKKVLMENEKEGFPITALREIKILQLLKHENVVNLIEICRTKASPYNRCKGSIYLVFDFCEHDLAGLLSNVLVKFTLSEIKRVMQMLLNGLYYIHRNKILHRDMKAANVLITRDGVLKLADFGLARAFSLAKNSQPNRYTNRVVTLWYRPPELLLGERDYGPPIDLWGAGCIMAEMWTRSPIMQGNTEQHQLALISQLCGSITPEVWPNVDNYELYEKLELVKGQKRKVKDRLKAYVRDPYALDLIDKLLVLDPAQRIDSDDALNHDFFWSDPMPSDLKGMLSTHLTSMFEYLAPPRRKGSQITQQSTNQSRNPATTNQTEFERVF
T1 sequence (O60563 whole entry partner): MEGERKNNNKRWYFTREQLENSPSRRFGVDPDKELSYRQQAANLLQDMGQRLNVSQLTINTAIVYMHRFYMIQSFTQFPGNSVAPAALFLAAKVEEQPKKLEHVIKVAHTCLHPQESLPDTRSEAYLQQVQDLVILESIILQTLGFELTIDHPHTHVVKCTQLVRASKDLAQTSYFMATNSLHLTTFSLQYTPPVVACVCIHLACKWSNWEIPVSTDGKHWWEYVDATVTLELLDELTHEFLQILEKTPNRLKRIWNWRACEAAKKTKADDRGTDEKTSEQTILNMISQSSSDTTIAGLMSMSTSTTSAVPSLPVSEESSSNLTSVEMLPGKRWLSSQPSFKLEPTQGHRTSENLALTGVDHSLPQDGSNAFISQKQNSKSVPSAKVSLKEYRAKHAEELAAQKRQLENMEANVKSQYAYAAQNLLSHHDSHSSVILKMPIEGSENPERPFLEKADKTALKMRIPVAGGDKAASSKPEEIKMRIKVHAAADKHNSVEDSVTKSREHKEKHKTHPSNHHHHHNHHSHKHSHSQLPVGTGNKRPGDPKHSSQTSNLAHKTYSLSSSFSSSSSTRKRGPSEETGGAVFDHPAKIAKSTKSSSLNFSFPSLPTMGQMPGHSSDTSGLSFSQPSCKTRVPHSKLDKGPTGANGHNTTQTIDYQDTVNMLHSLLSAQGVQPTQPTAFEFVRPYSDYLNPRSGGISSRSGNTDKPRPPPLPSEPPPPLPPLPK
Procedure: Cdk9/cyclinT1 Alpha Screen Protocol
Full length wild type Cdk9/cyclin T1 is purchased from Invitrogen, cat#PV4131. […] The cdk7tide peptide substrate, biotin-[…] -OH, is a custom synthesis purchased from the Tufts University Core Facility. The final concentration of cdk7tide peptide substrate is 200 nM. […] Phospho-Rpb1 CTD (ser2/5) substrate antibody is purchased from Cell Signaling Technology. The final concentration of antibody is 0.67 ug/ml. The Alpha Screen Protein A detection kit containing donor and acceptor beads is purchased from PerkinElmer Life Sciences. The final concentration of both donor and acceptor beads is 15 ug/ml. Alpha Screen is used for detection. […] The biotinylated-cdk7tide peptide substrate is bound to the streptavidin coated donor bead. The antibody is bound to the protein A coated acceptor bead. The antibody will bind to the phosphorylated form of the biotinylated-cdk7tide peptide substrate, bringing the donor and acceptor beads into close proximity. Laser irradiation of the donor bead at 680 nm generates a flow of short-lived singlet oxygen molecules. When the donor and acceptor beads are in close proximity, the reactive oxygen generated by the irradiation of the donor beads initiates a luminescence/fluorescence cascade in the acceptor beads. This process leads to a highly amplified signal with output in the 530-620 nm range. Assays are carried out in 50 mM Hepes, pH=7.5, 10 mM MgCl2, 0.1% Bovine Serum Albumin, 0.01% Tween-20, 1 mM Dithiothreitol, 2.5% Dimethyl Sulfoxide. Stop and detection steps are combined using 50 mM Hepes, pH=7.5, 18 mM EDTA, 0.1% Bovine Serum Albumin, 0.01% Tween-20.

[2] = biological target: T1, Cdk9/cyclinT1; assay: Cdk9/cyclinT1 IMAP protocol (fluorescence polarization); details: IC-50, CDK9; lower limit of assay 0.0005 micromolar

| pIC50 ([1]; neutral species) | pIC50 ([1]; TFA salt) | pIC50 [2] | Compound |
| --- | --- | --- | --- |
| 9.38 |  |  | N#CC1(CNc2cccc(-c3cc(N[C@H]4CC[C@H](NC5CC(F)(F)C5)CC4)ncc3Cl)n2)CCOCC1 [Compound 563] |
|  | 9.34 and 9.38 |  | COC[C@H](C)N[C@H]1CC[C@H](Nc2cc(-c3cccc(NCC4(C#N)CCOCC4)n3)c(F)cn2)CC1 [Compound 520] |
| 9.00 |  |  | COC[C@H](C)N[C@H]1CC[C@H](Nc2cc(-c3cncc(OCC4(C#N)CCOCC4)n3)c(Cl)cn2)CC1 [Compound 586] |
| 9.67 |  |  | N#CC1(COc2cncc(-c3cc(N[C@H]4CC[C@H](NC[C@@H](O)C(F)(F)F)CC4)ncc3Cl)n2)CCOCC1 [Compound 575] |
| 7.96 |  |  | N#CC1(COc2cncc(-c3cc(NC4CCCNCC4)ncc3Cl)n2)CCOCC1 (stereo not drawn) [Compound 583] |
| 8.21 |  |  | N#CC1(CNc2cccc(-c3cc(N[C@H]4CC[C@@H](N5CC6(COC6)C5)CC4)ncc3Cl)n2)CCOCC1 [Compound 547] |
| 9.52 |  |  | N#CC1(CNc2cccc(-c3cc(N[C@H]4CC[C@H](NCCO)CC4)ncc3Cl)n2)CCOCC1 [Compound 572] |
|  | 9.52 |  | C[C@H](N[C@H]1CC[C@H](Nc2cc(-c3cccc(NCC4(C#N)CCOCC4)n3)c(Cl)cn2)CC1)[C@@H](C)O [Compound 541] |
| 9.08 |  |  | CO[C@H]1CCN([C@H]2CC[C@H](Nc3cc(-c4cccc(NCC5(C#N)CCOCC5)n4)c(F)cn3)CC2)C1 [Compound 516] |
| 7.43 |  |  | N#CC1(CNc2cccc(-c3cc(N[C@H]4CC[C@@H](N5CCn6c(nnc6C(F)(F)F)C5)CC4)ncc3Cl)n2)CCOCC1 [Compound 530] |
| 9.29 | 9.69 |  | COCCN[C@H]1CC[C@H](Nc2cc(-c3cncc(OCC4(C#N)CCOCC4)n3)c(F)cn2)CC1 [Compound 559] |
|  | 9.04 |  | C[C@](O)(CN[C@H]1CC[C@H](Nc2cc(-c3cccc(NCC4(C#N)CCOCC4)n3)ccn2)CC1)C(F)(F)F [Compound 579] |
| 7.26 |  |  | N#CC1(COc2cncc(-c3cc(N[C@H]4CC[C@@H](N5CCCOCC5)CC4)ncc3Cl)n2)CCOCC1 [Compound 549] |
| 9.00 |  |  | N#CC1(COc2cncc(-c3cc(N[C@H]4CC[C@H](N5CCCOCC5)CC4)ncc3Cl)n2)CCOCC1 [Compound 548] |
| 9.37 |  |  | N#CC1(COc2cncc(-c3cc(N[C@H]4CC[C@H](NCCF)CC4)ncc3Cl)n2)CCOCC1 [Compound 550] |
|  | 9.10 and 9.07 |  | COC[C@H](C)N[C@H]1CC[C@H](Nc2cc(-c3cccc(NCC4(C#N)CC4)n3)c(F)cn2)CC1 [Compound 566] |
|  | 9.01 |  | C[C@@](O)(CN[C@H]1CC[C@H](Nc2cc(-c3cccc(NCC4(C#N)CCOCC4)n3)ccn2)CC1)C(F)(F)F [Compound 580] |
| 9.23 |  |  | CC(C)(C)OCCN[C@H]1CC[C@H](Nc2cc(-c3cccc(NCC4(C#N)CCOCC4)n3)c(F)cn2)CC1 [Compound 527] |
| 8.87 |  |  | N#CC1(CNc2cccc(-c3cc(N[C@H]4CC[C@H](N5CCC6(COC6)C5)CC4)ncc3Cl)n2)CCOCC1 [Compound 570] |

| pIC50 ([1]; neutral species) | pIC50 ([1]; TFA salt) | pIC50 [2] | Compound |
| --- | --- | --- | --- |
| 8.95 | 9.07 and 8.98 and 9.42 |  | COC[C@@H](C)N[C@H]1CC[C@H](Nc2cc(-c3cncc(OCC4(C#N)CCOCC4)n3)c(Cl)cn2)CC1 [Compound 552] |
| 9.18 | 9.14 and 9.58 and 9.24 |  | COC[C@@H](C)N[C@H]1CC[C@H](Nc2cc(-c3cncc(OCC4(C#N)CCOCC4)n3)c(F)cn2)CC1 [Compound 553] |
| 8.30 |  |  | C[C@H](CO)N[C@H]1CC[C@H](Nc2cc(-c3cncc(OCC4(C#N)CCOCC4)n3)c(Cl)cn2)CC1 [Compound 590] |
| 9.66 | 8.66 |  | CC(C)(C)OCCN[C@H]1CC[C@H](Nc2cc(-c3cccc(NCC4(C#N)CCOCC4)n3)c(Cl)cn2)CC1 [Compound 515] |
|  |  | 8.31 | COCCO[C@H]1CC[C@H](Nc2cc(-c3cccc(NCC4(C#N)CCOCC4)n3)c(Cl)cn2)CC1 [Compound 415, 4-(((5′-chloro-2′-((trans-4-(2-methoxyethoxy)cyclohexyl)amino)-[2,4′-bipyridin]-6-yl)amino)methyl)tetrahydro-2H-pyran-4-carbonitrile] |
|  |  | 7.72 | CO[C@@H]1CCN([C@H]2CC[C@@H](Nc3cc(-c4cccc(NCC5(C#N)CCOCC5)n4)c(Cl)cn3)CC2)C1 [Compound 478, 4-(((5′-chloro-2′-((cis-4-((R)-3-methoxypyrrolidin-1-yl)cyclohexyl)amino)-[2,4′-bipyridin]-6-yl)amino)methyl)tetrahydro-2H-pyran-4-carbonitrile] |
|  |  | 9.22 | N#CC1(CNc2cccc(-c3cc(N[C@H]4CC[C@H](NCCC(F)(F)F)CC4)ncc3Cl)n2)CCOCC1 [Compound 433, 4-(((5′-chloro-2′-((trans-4-((3,3,3-trifluoropropyl)amino)cyclohexyl)amino)-[2,4′-bipyridin]-6-yl)amino)methyl)tetrahydro-2H-pyran-4-carbonitrile] |
|  |  | 8.26 | N#CC1(CNc2cccc(-c3cc(N[C@@H]4CC[C@@H](N(CC5CCCO5)CC5CCCO5)C4)ncc3Cl)n2)CCOCC1 (stereo partly drawn) [Example 407] |
|  |  | > 9.30 | COC[C@@H](C)N[C@H]1CC[C@H](Nc2cc(-c3cncc(NCC4(C#N)CCOCC4)n3)c(Cl)cn2)CC1 [Compound 507, 4-(((6-(5-chloro-2-((trans-4-(((R)-1-methoxypropan-2-yl)amino)cyclohexyl)amino)pyridin-4-yl)pyrazin-2-yl)amino)methyl)tetrahydro-2H-pyran-4-carbonitrile] |
|  |  | 9.00 | N#CC1(CNc2cccc(-c3cc(N[C@H]4CC[C@H](CNc5nc6ccccc6o5)CC4)ncc3Cl)n2)CCOCC1 [Compound 504, 4-(((2′-((trans-4-((benzo[d]oxazol-2-ylamino)methyl)cyclohexyl)amino)-5′-chloro-[2,4′-bipyridin]-6-yl)amino)methyl)tetrahydro-2H-pyran-4-carbonitrile] |
|  |  | 7.38 | COC[C@]1(O)CC[C@@H](Nc2cc(-c3cccc(NCC4CCOCC4)n3)c(Cl)cn2)CC1 [Compound 447, Cis-4-((5′-chloro-6-(((tetrahydro-2H-pyran-4-yl)methyl)amino)-[2,4′-bipyridin]-2′-yl)amino)-1-(methoxymethyl)cyclohexanol] |
|  |  | > 9.30 | CC(C)S(=O)(=O)NC[C@H]1CC[C@H](Nc2cc(-c3cccc(NCC4(C#N)CCOCC4)n3)c(Cl)cn2)CC1 [Compound 495, N-((trans-4-((5′-chloro-6-(((4-cyanotetrahydro-2H-pyran-4-yl)methyl)amino)-[2,4′-bipyridin]-2′-yl)amino)cyclohexyl)methyl) propane-2-sulfonamide] |
|  |  | > 9.30 | N#CC1(CNc2cccc(-c3cc(N[C@H]4CC[C@H](NCC(N)=O)CC4)ncc3Cl)n2)CCOCC1 [Compound 419, 2-((trans-4-((5′-chloro-6-(((4-cyanotetrahydro-2H-pyran-4-yl)methyl)amino)-[2,4′-bipyridin]-2′-yl)amino)cyclohexyl)amino) acetamide] |
|  |  | 8.96 | COC[C@@H](C)N[C@H]1CC[C@H](Nc2cc(-c3cncc(OCC4(C#N)CCOCC4)n3)c(Cl)cn2)CC1 [Compound 509, 4-(((6-(5-chloro-2-((trans-4-(((R)-1-methoxypropan-2-yl)amino)cyclohexyl)amino)pyridin-4-yl)pyrazin-2-yl)oxy)methyl)tetrahydro-2H-pyran-4-carbonitrile] |
|  |  | 8.15 | COC[C@H](C)N[C@H]1CC[C@H](Nc2cc(-c3cccc(NCC4(O)CCOCC4)n3)c(Cl)cn2)CC1 [Compound 451, 4-(((5′-chloro-2′-((trans-4-(((S)-1-methoxypropan-2-yl)amino)cyclohexyl)amino)-[2,4′-bipyridin]-6-yl)amino)methyl)tetrahydro-2H-pyran-4-ol] |
|  |  | > 9.30 | N#CC1(CNc2cccc(-c3cc(N[C@H]4CC[C@H](NCCF)CC4)ncc3Cl)n2)CCOCC1 [Compound 424, 4-(((5′-chloro-2′-((trans-4-((2-fluoroethyl)amino)cyclohexyl)amino)-[2,4′-bipyridin]-6-yl)amino)methyl)tetrahydro-2H-pyran-4-carbonitrile] |
|  |  | > 9.30 | N#CC1(CNc2cccc(-c3cc(N[C@H]4CC[C@H](N)CC4)ncc3F)n2)CC1 [Compound 486, 1-(((2′-((trans-4-aminocyclohexyl)amino)-5′-fluoro-[2,4′-bipyridin]-6-yl)amino)methyl)cyclopropane-carbonitrile] |
|  |  | > 9.30 | N#CC1(CNc2cccc(-c3cc(N[C@H]4CC[C@H](NC[C@H]5CCCO5)CC4)ncc3Cl)n2)CCOCC1 [Compound 473, 4-(((5′-chloro-2′-((trans-4-((((R)-tetrahydrofuran-2-yl)methyl)amino)cyclohexyl)amino)-[2,4′-bipyridin]-6-yl)amino)methyl)tetrahydro-2H-pyran-4-carbonitrile] |
|  |  | 8.27 | CO[C@H]1CCN([C@H]2CC[C@@H](Nc3cc(-c4cccc(NCC5(C#N)CCOCC5)n4)c(Cl)cn3)CC2)C1 [Compound 476, 4-(((5′-chloro-2′-((cis-4-((S)-3-methoxypyrrolidin-1-yl)cyclohexyl)amino)-[2,4′-bipyridin]-6-yl)amino)methyl)tetrahydro-2H-pyran-4-carbonitrile] |
